This note sets out measurements from paper PMC8480901 (PLoS ONE, 2021).

Several values for one entry are separate records, joined by “and”; a condition that tells them apart may be missing. Identical values can stand only once. Entries after “also recorded” stand apart in the source; their conditions may differ.

The experiment concerns LPS-induced lung neutrophilia. Briefly: LPS-induced lung neutrophilia: total and neutrophil cell counts in BALF. It is filed as in vivo, BALB/c mice. Conditions: for total cell and neutrophil recruitment to the lungs (measured in BALF): 10, 30, and 100 mg/kg SC 30 min before intranasal LPS, 4 hours postchallenge, vs vehicle control; for Neutrophils in BALF: % reduction / Total cells/white blood cells in BALF: % reduction / Neutrophils in BALF, Mean / Total cells/white blood cells in BALF, Mean / Neutrophils in BALF, individual mice / Total cells/white blood cells in BALF, individual mice: LPS; for Neutrophils in BALF, Mean / Total cells/white blood cells in BALF, Mean / Neutrophils in BALF, individual mice / Total cells/white blood cells in BALF, individual mice: BALF 4 h after LPS. As to the method: Six-week-old male BALB/c mice (Charles River, Calco, Italy) were singly housed in a temperature-controlled (22°C±2°C) environment with a 12:12-hour light:dark cycle and free access to food and water. Mice were given ≥7 days for acclimation before all procedures. […] One day before the start of experimental procedures, all animals were randomized into 6 groups (n = 8/group). Animal group assignment was not blinded.
LPS lyophilized powder (2 mg; Sigma-Aldrich Chemie GmbH, Munich, Germany) from Escherichia coli (O111:B4) was dissolved in 10 mL cold saline (0.9%; Pliva, Zagreb, Croatia), vortexed, and further diluted by mixing 2 mL of this solution with 2 mL saline to reach a final concentration of 5 μg LPS/50 μL saline. […] Ketamine hydrochloride (Narketan 10) was acquired from Vetoquinol (Bern, Switzerland), and xylazine hydrochloride (Rompun, 2%) was acquired from Bayer (Leverkusen, Germany).
To induce pulmonary neutrophilia, mice in the control group received intranasal (IN) 50 μL saline, and all other animals received 5 μg LPS/50 μL saline IN per mouse.
Tracheostomy was performed, and a Buster cat catheter (1.0 × 130 mm; Kruuse, Langeskov, Denmark), shortened to 3 cm, was clamped into the trachea. The lungs were washed 3 times with cold phosphate-buffered saline (PBS; Sigma-Aldrich Chemie GmbH) in a total volume of 1 mL (0.4, 0.3, and 0.3 mL). The collected BALF samples were centrifuged (1303×g, 5 min, 4°C), and resulting cell pellets were each resuspended in 600 μL PBS. Samples were immediately analyzed for total and differential neutrophil cell counts via automated hematology analyzer (XT-2000iV; Sysmex, Kobe, Japan).
Differences between treated versus vehicle groups were determined using the Mann-Whitney test and were considered statistically significant when P<0.05. Outliers in the analysis of cytokine and chemokine concentrations were identified using the Grubbs test. No criteria were set for inclusion/exclusion of animals during the experiment or data points during the analysis.

Setting [1] is: Experiment 1, 10 mg/kg SC, listed as Azi, 10 mg/kg.
[2] abbreviates: Experiment 1, 30 mg/kg SC, listed as Azi, 30 mg/kg.
[3] abbreviates: Experiment 1, 100 mg/kg SC, listed as Azi, 100 mg/kg.
Setting [4] is: Experiment 1, 1 mg/kg (IP), 1 mg/kg.
The mark [5] stands for this setting: Experiment 2, 0.5 mg/kg (PO), 0.5 mg/kg.
[6] abbreviates: Experiment 1, 10 mg/kg SC, listed as Lef, 10 mg/kg.
[7] abbreviates: Experiment 1, 30 mg/kg SC, listed as Lef, 30 mg/kg.
The mark [8] stands for this setting: Experiment 1, 100 mg/kg SC, listed as Lef, 100 mg/kg.
The mark [9] stands for this setting: Experiment 2, 35 mg/kg SC, listed as Lef, 35 mg/kg.
Where [10] appears, read: Experiment 2, 70 mg/kg SC, listed as Lef, 70 mg/kg.
The mark [11] stands for this setting: Experiment 2, 140 mg/kg SC, listed as Lef, 140 mg/kg.

In the case of `CC[C@H]1OC(=O)[C@H](C)[C@@H](O[C@H]2C[C@@](C)(OC)[C@@H](O)[C@H](C)O2)[C@H](C)[C@@H](O[C@@H]2O[C@H](C)C[C@H](N(C)C)[C@H]2O)[C@](C)(O)C[C@@H](C)CN(C)[C@H](C)[C@@H](O)[C@]1(C)O` [Azithromycin], the “total cell and neutrophil recruitment to the lungs (measured in BALF)” value is given as “significant dose-dependent reductions”. Further, where the note is “Experiment 1, 10 mg/kg SC”, the “Neutrophils in BALF: % reduction” value was found to be 42%; the “Total cells/white blood cells in BALF: % reduction” value came to 68%; the “Neutrophils in BALF, Mean” value worked out at 3e+08 L⁻¹; the “Total cells/white blood cells in BALF, Mean” value was determined as 4.4e+08 L⁻¹. Moreover, under setting [1], the “Neutrophils in BALF, individual mice” value is 3.8e+08 L⁻¹ and 3.6e+08 L⁻¹ and 3e+08 L⁻¹ and 2.9e+08 L⁻¹ and 2.7e+08 L⁻¹ and 8e+07 L⁻¹ and 3.4e+08 L⁻¹; the “Total cells/white blood cells in BALF, individual mice” value is 1.5e+08 L⁻¹ and 4.9e+08 L⁻¹ and 5.5e+08 L⁻¹ and 6.2e+08 L⁻¹ and 3.6e+08 L⁻¹ and 5.1e+08 L⁻¹ and 3.8e+08 L⁻¹. Moreover, for the setting “Experiment 1, 30 mg/kg SC”, the “Neutrophils in BALF: % reduction” value was determined as 45%; the “Total cells/white blood cells in BALF: % reduction” value was 71%; the “Neutrophils in BALF, Mean” value is 2.9e+08 L⁻¹; the “Total cells/white blood cells in BALF, Mean” value came out at 4.4e+08 L⁻¹. Under setting [2], the “Neutrophils in BALF, individual mice” value is 2.5e+08 L⁻¹ and 5.9e+08 L⁻¹ and 2.3e+08 L⁻¹ and 2.1e+08 L⁻¹ and 4.6e+08 L⁻¹ and 1.7e+08 L⁻¹ and 2e+08 L⁻¹; the “Total cells/white blood cells in BALF, individual mice” value is 2.5e+08 L⁻¹ and 3.1e+08 L⁻¹ and 4.1e+08 L⁻¹ and 8.2e+08 L⁻¹ and 4.6e+08 L⁻¹ and 3.8e+08 L⁻¹ and 5.6e+08 L⁻¹. For the same compound, where the note is “Experiment 1, 100 mg/kg SC”, the “Neutrophils in BALF: % reduction” value is on record as 57%; the “Total cells/white blood cells in BALF: % reduction” value stood at 95%; the “Neutrophils in BALF, Mean” value was 2.3e+08 L⁻¹; the “Total cells/white blood cells in BALF, Mean” value is 3.7e+08 L⁻¹. Also, under setting [3], the “Neutrophils in BALF, individual mice” value is 3.6e+08 L⁻¹ and 2.2e+08 L⁻¹ and 1.7e+08 L⁻¹ and 1.3e+08 L⁻¹ and 3.4e+08 L⁻¹ and 2.5e+08 L⁻¹ and 1.5e+08 L⁻¹ and 1.9e+08 L⁻¹; the “Total cells/white blood cells in BALF, individual mice” value is 2.8e+08 L⁻¹ and 3.1e+08 L⁻¹ and 4.9e+08 L⁻¹ and 3.6e+08 L⁻¹ and 4.4e+08 L⁻¹ and 2.2e+08 L⁻¹ and 5.2e+08 L⁻¹ and 3.3e+08 L⁻¹.

`C[C@@H]1C[C@H]2[C@@H]3CCC4=CC(=O)C=C[C@]4(C)[C@@]3(F)[C@@H](O)C[C@]2(C)[C@@]1(O)C(=O)CO` [Dexamethasone]: for the setting “Experiment 1, 1 mg/kg (IP)”, the “Neutrophils in BALF: % reduction” value came out at 47%; the “Total cells/white blood cells in BALF: % reduction” value was found to be 75%; the “Neutrophils in BALF, Mean” value is 2.8e+08 L⁻¹; the “Total cells/white blood cells in BALF, Mean” value was determined as 4.3e+08 L⁻¹. For the same compound, under setting [4], the “Neutrophils in BALF, individual mice” value was 2.5e+08 L⁻¹ and 1.2e+08 L⁻¹ and 2.9e+08 L⁻¹ and 2.6e+08 L⁻¹ and 3e+08 L⁻¹ and 3.9e+08 L⁻¹ and 3.1e+08 L⁻¹; the “Total cells/white blood cells in BALF, individual mice” value is 3.9e+08 L⁻¹ and 3.8e+08 L⁻¹ and 4.1e+08 L⁻¹ and 2.3e+08 L⁻¹ and 4.5e+08 L⁻¹ and 5.2e+08 L⁻¹ and 6.3e+08 L⁻¹. Further, for the setting “Experiment 2, 0.5 mg/kg (PO)”, the “Neutrophils in BALF: % reduction” value stood at 61%; the “Total cells/white blood cells in BALF: % reduction” value was 78%; the “Neutrophils in BALF, Mean” value stood at 2.4e+08 L⁻¹; the “Total cells/white blood cells in BALF, Mean” value stood at 5e+08 L⁻¹. Under setting [5], the “Neutrophils in BALF, individual mice” value is 2.5e+08 L⁻¹ and 2e+08 L⁻¹ and 3.4e+08 L⁻¹ and 1.9e+08 L⁻¹ and 2.3e+08 L⁻¹ and 3.1e+08 L⁻¹ and 1.7e+08 L⁻¹; the “Total cells/white blood cells in BALF, individual mice” value is 7e+08 L⁻¹ and 2.9e+08 L⁻¹ and 5.5e+08 L⁻¹ and 4.4e+08 L⁻¹ and 7.7e+08 L⁻¹ and 3.6e+08 L⁻¹.

Consider `C=C[C@]1(C)C[C@@H](OC(=O)CS[C@@H]2CC[C@@H](N)C[C@H]2O)[C@]2(C)[C@H](C)CC[C@]3(CCC(=O)[C@H]32)[C@@H](C)[C@@H]1O` [Lefamulin], for which the “total cell and neutrophil recruitment to the lungs (measured in BALF)” value is recorded as “dose-dependent reduction; also recorded: almost complete reduction”. Where the note is “Experiment 1, 10 mg/kg SC”, the “Neutrophils in BALF: % reduction” value stood at 37%; the “Total cells/white blood cells in BALF: % reduction” value was found to be 50%; the “Neutrophils in BALF, Mean” value was determined as 3.3e+08 L⁻¹; the “Total cells/white blood cells in BALF, Mean” value worked out at 5e+08 L⁻¹. Under setting [6], the “Neutrophils in BALF, individual mice” value is 4.7e+08 L⁻¹ and 2.2e+08 L⁻¹ and 1.9e+08 L⁻¹ and 3.7e+08 L⁻¹ and 3.1e+08 L⁻¹ and 1e+08 L⁻¹ and 4.5e+08 L⁻¹ and 4.9e+08 L⁻¹; the “Total cells/white blood cells in BALF, individual mice” value is 6.6e+08 L⁻¹ and 5.9e+08 L⁻¹ and 6.1e+08 L⁻¹ and 3e+08 L⁻¹ and 5.1e+08 L⁻¹ and 6.3e+08 L⁻¹ and 5e+08 L⁻¹ and 1.7e+08 L⁻¹. Besides, for the setting “Experiment 1, 30 mg/kg SC”, the “Neutrophils in BALF: % reduction” value came to 59%; the “Total cells/white blood cells in BALF: % reduction” value stood at 78%; the “Neutrophils in BALF, Mean” value came out at 2.2e+08 L⁻¹; the “Total cells/white blood cells in BALF, Mean” value worked out at 4.2e+08 L⁻¹. Under setting [7], the “Neutrophils in BALF, individual mice” value is 2.1e+08 L⁻¹ and 3.8e+08 L⁻¹ and 1.2e+08 L⁻¹ and 2.5e+08 L⁻¹ and 1.7e+08 L⁻¹ and 2.3e+08 L⁻¹ and 1.6e+08 L⁻¹; the “Total cells/white blood cells in BALF, individual mice” value was 2.7e+08 L⁻¹ and 3.7e+08 L⁻¹ and 3.5e+08 L⁻¹ and 6.6e+08 L⁻¹ and 2.6e+08 L⁻¹ and 3.9e+08 L⁻¹ and 3.8e+08 L⁻¹. Further, where the note is “Experiment 1, 100 mg/kg SC”, the “Neutrophils in BALF: % reduction” value was determined as 70%; the “Total cells/white blood cells in BALF: % reduction” value amounted to 100%; the “Neutrophils in BALF, Mean” value is 1.6e+08 L⁻¹; the “Total cells/white blood cells in BALF, Mean” value was determined as 3.5e+08 L⁻¹. Under setting [8], the “Neutrophils in BALF, individual mice” value is 1.4e+08 L⁻¹ and 1.8e+08 L⁻¹ and 1.2e+08 L⁻¹ and 1.3e+08 L⁻¹ and 2.8e+08 L⁻¹ and 1.7e+08 L⁻¹; the “Total cells/white blood cells in BALF, individual mice” value is 3.3e+08 L⁻¹ and 2.4e+08 L⁻¹ and 3.1e+08 L⁻¹ and 3.4e+08 L⁻¹ and 2.3e+08 L⁻¹ and 3.9e+08 L⁻¹ and 6.6e+08 L⁻¹. Where the note is “Experiment 2, 35 mg/kg SC”, the “Neutrophils in BALF: % reduction” value is on record as 64%; the “Total cells/white blood cells in BALF: % reduction” value amounted to 69%; the “Neutrophils in BALF, Mean” value was found to be 2.2e+08 L⁻¹; the “Total cells/white blood cells in BALF, Mean” value was 5.5e+08 L⁻¹. Also, under setting [9], the “Neutrophils in BALF, individual mice” value is 2e+08 L⁻¹ and 1.6e+08 L⁻¹ and 2.4e+08 L⁻¹ and 2.2e+08 L⁻¹ and 3.4e+08 L⁻¹ and 1.9e+08 L⁻¹ and 3.1e+08 L⁻¹ and 1.2e+08 L⁻¹; the “Total cells/white blood cells in BALF, individual mice” value was 9.1e+08 L⁻¹ and 2e+08 L⁻¹ and 7e+08 L⁻¹ and 4.4e+08 L⁻¹ and 4.6e+08 L⁻¹ and 3.7e+08 L⁻¹ and 7.3e+08 L⁻¹ and 5.5e+08 L⁻¹. Also, under “Experiment 2, 70 mg/kg SC”, the “Neutrophils in BALF: % reduction” value was 77%; the “Total cells/white blood cells in BALF: % reduction” value was found to be 91%; the “Neutrophils in BALF, Mean” value came out at 1.5e+08 L⁻¹; the “Total cells/white blood cells in BALF, Mean” value amounted to 4.3e+08 L⁻¹. Moreover, under setting [10], the “Neutrophils in BALF, individual mice” value was 1.8e+08 L⁻¹ and 1.7e+08 L⁻¹ and 1.1e+08 L⁻¹ and 1e+08 L⁻¹ and 2.1e+08 L⁻¹ and 1.2e+08 L⁻¹ and 9e+07 L⁻¹; the “Total cells/white blood cells in BALF, individual mice” value is 4.6e+08 L⁻¹ and 2.1e+08 L⁻¹ and 4.3e+08 L⁻¹ and 4.4e+08 L⁻¹ and 3.3e+08 L⁻¹ and 3e+08 L⁻¹ and 5.8e+08 L⁻¹ and 6.7e+08 L⁻¹. Further, under “Experiment 2, 140 mg/kg SC”, the “Neutrophils in BALF: % reduction” value is 77%; the “Total cells/white blood cells in BALF: % reduction” value is 107%; the “Neutrophils in BALF, Mean” value amounted to 1.5e+08 L⁻¹; the “Total cells/white blood cells in BALF, Mean” value was 3.4e+08 L⁻¹. Besides, under setting [11], the “Neutrophils in BALF, individual mice” value was 1.6e+08 L⁻¹ and 1.4e+08 L⁻¹ and 1.2e+08 L⁻¹ and 1.7e+08 L⁻¹ and 9e+07 L⁻¹ and 2e+08 L⁻¹; the “Total cells/white blood cells in BALF, individual mice” value is 4.6e+08 L⁻¹ and 3.9e+08 L⁻¹ and 2.6e+08 L⁻¹ and 2.9e+08 L⁻¹ and 3.6e+08 L⁻¹ and 3.3e+08 L⁻¹ and 4.4e+08 L⁻¹ and 2e+08 L⁻¹.
